pKi: −log10 of the molar value. A value given as a limit tells only on which side of the number the result lay.

The target of the assay is T1, cloned human CRTH2 receptor (Homo sapiens, UniProt Q9Y5Y4).
T1 construct: purchased Biosignal; host or cells: HEK-293 cells stably expressing human CRTH2 and G-alpha-16 (membranes)
T1 sequence (Q9Y5Y4 1-395): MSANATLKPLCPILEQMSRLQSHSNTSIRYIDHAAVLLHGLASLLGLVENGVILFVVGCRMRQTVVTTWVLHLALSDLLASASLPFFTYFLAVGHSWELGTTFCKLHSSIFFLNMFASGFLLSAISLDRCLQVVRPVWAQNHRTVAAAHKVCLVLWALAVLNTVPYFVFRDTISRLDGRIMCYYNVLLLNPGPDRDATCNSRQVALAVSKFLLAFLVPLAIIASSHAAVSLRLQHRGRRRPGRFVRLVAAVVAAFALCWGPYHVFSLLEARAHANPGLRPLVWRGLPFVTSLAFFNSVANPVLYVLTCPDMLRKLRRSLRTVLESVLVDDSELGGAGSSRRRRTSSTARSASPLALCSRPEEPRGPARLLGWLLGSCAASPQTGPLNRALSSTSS
In words: Radioligand membrane binding assay: inhibition of [3H] PGD2 binding to CRTH2 (Scintillation Proximity Assay). The note with it: inhibition of [3H] PGD2 binding to membranes of HEK-293 cells stably expressing human CRTH2; SPA; 10 point curve from 10 μM; room temperature, approximately 2 hours. The method in brief:
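Scintillation proximity binding of [3H] PGD2 (at KD or lower) to membranes of HEK-293 cells stably expressing human CRTH2, in 50 mM Tris-HCl pH 7.5, 5 mM MgCl2, 1 mM EDTA. Ten-point 3-fold series from 10 μM final, ~2 h at room temperature; cold PGD2 defines NSB; percent inhibition, duplicate runs (n=2).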
A general note: In a scintillation proximity assay essentially only radioactivity close to the scintillant gives light.

By pKi is commonly meant −log10 of the Ki, conventionally taken in molar units. Low readings indicate a high Ki, high ones a low Ki. As for `CC(=O)N(c1ccccc1)[C@@H]1C[C@H](C)N(C(=O)c2c(C)noc2C)c2ccccc21` (racemic) [Compound A-154, (±)-Cis-N-[1-(3,5-dimethyl-isoxazole-4-carbonyl)-2-methyl-1,2,3,4-tetrahydro-quinolin-4-yl]-N-phenyl-acetamide], the pKi is over 4.22.
`CC(=O)N(c1ccccc1)[C@@H]1C[C@H](C(=O)O)N(C(=O)c2ccc(F)cc2)c2ccccc21` (racemic) [Compound B-102, (±)-Cis-4-(acetyl-phenyl-amino)-1-(4-fluoro-benzoyl)-1,2,3,4-tetrahydro-quinoline-2-carboxylic acid] showed a negative logarithm of the Ki (pKi) of over 5.00.
Turning to `COc1cccc(C(=O)N2c3ccccc3C(N(C(C)=O)c3ccccc3)CC2(C)C)c1` (centres unmarked) [Compound F-1, N-[1-(3-Methoxy-benzoyl)-2,2-dimethyl-1,2,3,4-tetrahydro-quinolin-4-yl]-N-phenyl-acetamide], the pKi is over 4.22.
`COc1ccc(C(=O)N2c3ccccc3[C@H](N(C(C)=O)c3ccc(OCC(=O)O)cc3)C[C@@H]2C)cc1` [Compound D-10, (2S,4R)-(4-{Acetyl-[1-(4-methoxybenzoyl)-2-methyl-1,2,3,4-tetrahydro-quinolin-4-yl]-amino}-phenoxy)-acetic acid] gave a pKi of over 5.00.
For the compound `COc1cccc(C(=O)N2c3ccccc3[C@H](N(C(=O)C3CCCCC3)c3ccccc3)C[C@@H]2C)c1` (racemic) [Compound A-54, (±)-Cis-cyclohexanecarboxylic acid [1-(3-methoxy-benzoyl)-2-methyl-1,2,3,4-tetrahydro-quinolin-4-yl]-phenylamide], the negative-log Ki (pKi) was over 5.00.
`CC(=O)N(c1ccccc1)C1CC(C)N(C(=O)c2sc(-c3ccccc3)nc2C)c2ccccc21` (centres unmarked) [Compound A-156] gave a pKi of over 5.00.
As for `CCC(=O)N(c1ccc(Cl)cc1)[C@H]1C[C@@H](C)N(C(=O)c2ccc(OC)cc2)c2ccccc21` [Compound B-18, (2R,4S)-cis-N-(4-chloro-phenyl)-N-[1-(4-methoxy-benzoyl)-2-methyl-1,2,3,4-tetrahydro-quinolin-4-yl]-propionamide], the pKi is over 5.00.
The value for `CC(=O)N(c1ccccc1)[C@@H]1C[C@H](C)N(C(=O)c2sc(-c3ccccc3)nc2C)c2ccccc21` (racemic) [Compound A-16, (±)-Cis-N-[2-methyl-1-(4-methyl-2-phenyl-thiazole-5-carbonyl)-1,2,3,4-tetrahydro-quinolin-4-yl]-N-phenyl-acetamide] was over 5.00; that for `COc1cccc(C(=O)N2c3ccccc3[C@H](N(C(=O)c3ccc(Cl)cc3)c3ccccc3)C[C@@H]2C)c1` (racemic) [Compound A-3, (±)-Cis-4-chloro-N-[1-(3-methoxy-benzoyl)-2-methyl-1,2,3,4-tetrahydro-quinolin-4-yl]-N-phenyl-benzamide] was over 5.00.
For the compound `COc1ccc(C(=O)N2c3ccccc3[C@H](N(C(C)=O)c3ccc(C(C)(C)C(=O)O)cc3)C[C@@H]2C)cc1` [Compound D-1, (2S,4R)-2-(4-{Acetyl-[1-(4-methoxy-benzoyl)-2-methyl-1,2,3,4-tetrahydro-quinolin-4-yl]-amino}-phenyl)-2-methyl-propionic acid], the negative logarithm of the Ki (pKi) was over 5.00.
In turn, `CCC(=O)N(c1ccccc1)C1CC(C)N(C(=O)C2CN(Cc3ccccc3)CCO2)c2ccccc21` (racemic) [Compound A-81, (±)-Cis-N-[1-(4-benzyl-morpholine-2-carbonyl)-2-methyl-1,2,3,4-tetrahydro-quinolin-4-yl]-N-phenyl-propionamide] gave a negative-log Ki (pKi) of over 5.00.
